According to US20240010993A1, “CELL CULTURE CHAMBER AND METHOD FOR CULTURING CELLS AND FOR THE IN VITRO PRODUCTION OF CELL LAYERS AND ORGAN MODELS” (Dynamic42 GmbH, priority 2021, published 2024):

Columns and labels:
[1] = cited from earlier work
[2] = tested on: macrophages in co-culture with liver sinusoidal endothelial cells and hepatocytes; assay: LPS addition to liver model to check activatability of immune cells (cytokine release); format: cell-based; conditions: LPS added at the tenth and fourteenth day of culture; FIG. 8
Description: In addition, lipopolysaccharide (LPS) was added to some samples at the tenth day and the fourteenth day to check the activatability of immune cells (macrophages) contained in the liver model, and the respective reactions were shown. The addition of LPS as a so-called pyrogenic substance represents a test for endotoxins that is customary in the art. Immune cells such as macrophages respond to this stimulus with increased release of cytokines. […] It can be deduced from this that macrophages in co-culture with the investigated liver sinusoidal endothelial cells and hepatocytes were capable of reacting with an immune response to an endotoxin even after 10 or after 14 days. This is important for being able to detect immune cell-mediated side effects of drugs.

[3] = after 24 hours in PDMS chips; binds irreversibly to PDMS; cited from earlier work
[4] = adsorption effect of PBT in cell culture chambers (active substance adsorption); format: physicochemical; conditions: after 24 hours; both embodiments Chip PBT-BC1 and Chip PBT-BC2; control stock solution propiconazole 100 μM, troglitazone 64 μM
Description: After an incubation period of 24 h, at least 80% of the starting concentration of the propiconazole or the troglitazone is detectable in the culture medium (cf. FIG. 3A, FIG. 3B).
FIGS. 3A and 3B show results of experiments on the adsorption effect of PBT in two cell culture chambers 1 according to the disclosure of different designs. The designation, “Chip PBT-BC1,” denotes a first embodiment of the cell culture chamber 1, and “Chip PBT-BC2” a second embodiment. The first embodiment has a width B of 34.6 mm, a depth T of 6.56 mm, and a height H of 0.7 mm for the first channel 3. The second channel 4 has the dimensions of 44.8 mm, 3.6 mm, and 0.8 mm (W/D/H). The corresponding dimensions for the second embodiment, “Chip PBT-BC2,” of the cell culture chamber 1 are 34.6 mm, 8.06 mm, and 0.7 mm (W/D/H) for the first channel 3 and 49.4 mm, 5.61 mm, and 1.0 mm (B/T/H) for the second channel 4.
In comparison, a control in the form of a stock solution (100 μM) with propiconazole is given. […] In each case, it can be seen from the two graphics that, in both embodiments of the cell culture chamber 1 according to the disclosure, more than 85% of the propiconazole (FIG. 3A) and more than 80% of the troglitazone (FIG. 3B) in the culture medium 7 could be detected even after 24 hours.

Cc1c(C)c2c(c(C)c1O)CCC(C)(COc1ccc(CC3SC(=O)NC3=O)cc1)O2 (stereo not shown) [troglitazone]
log P [1]: 3.60

lipopolysaccharide [LPS]
concentration of IL-1beta after the addition of LPS [2]: distinct increase

CCCC1COC(Cn2cncn2)(c2ccc(Cl)cc2Cl)O1 (stereo not shown) [propiconazole]
detected fraction of the starting concentration in the culture medium [3]: less than 30%
percentage (RTC - ratio to control) remaining and detectable in the culture medium [4]: more than 85%
